The record followed here is US10919908B2, “Thienopyrimidinone derivative and application thereof in preparing anticancer drug” (Henan Genuine Biotech Co., Ltd., priority 2017, dated 2021).

Structures are written as SMILES. pIC50: −log10 of the molar value. Where only a bound is given, the exact number is not on record here.

One assay has as its target Mcl-1 protein (Homo sapiens, UniProt Q07820). Put plainly: Inhibition of Mcl-1 activity by fluorescence polarization (FP) competition with a fluorescein-labeled ligand. Type of assay: binding. As to conditions: 10 nM Mcl-1 protein, 10 nM labeled ligand, 2 hours at room temperature. On the technique in general: Fluorescence polarisation rises when a labelled molecule tumbles more slowly, as on binding a larger partner.

Assay [1] has as its system Multiple myeloma tumor cells (H929). Put plainly: In vitro cytotoxicity, MTT assay, 48 hours exposure. Format: cell-based. To be noted: Homo sapiens, NCI-H929, MTT cell viability. The procedure: Multiple myeloma tumor cells (H929) were used for toxicity studies, and the cells were distributed in microtiter plates and exposed to the compounds tested for 48 hours.
On the technique in general: Tetrazolium dyes change colour on reduction, which living cells bring about.

Mcl-1 protein, sequence (Q07820 whole entry): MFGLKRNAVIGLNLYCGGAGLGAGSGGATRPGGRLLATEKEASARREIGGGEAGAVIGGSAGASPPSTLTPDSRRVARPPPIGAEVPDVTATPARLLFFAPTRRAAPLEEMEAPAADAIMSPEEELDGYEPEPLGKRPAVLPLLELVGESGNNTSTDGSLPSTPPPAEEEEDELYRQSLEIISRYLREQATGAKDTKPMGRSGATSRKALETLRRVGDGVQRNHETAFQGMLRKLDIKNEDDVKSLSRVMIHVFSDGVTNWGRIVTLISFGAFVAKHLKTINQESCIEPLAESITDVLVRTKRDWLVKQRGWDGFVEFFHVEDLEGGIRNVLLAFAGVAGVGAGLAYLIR

On to `Cc1c(-c2c(-c3ccc(F)o3)sc3ncnc(O[C@@H](C(=O)O)C(F)(F)c4ccccc4OCc4ccnn4CC(F)(F)F)c23)ccc(OCCN2CCN(C)CC2)c1Cl` [Compound 102], for which the pIC50 is > 9.00 on Mcl-1 protein and < 8.00 in assay [1].
For `Cc1c(-c2c(-c3ccc(F)o3)sc3ncnc(O[C@H](C(=O)O)C(F)(F)c4ccccc4OCc4ccnn4CC(F)(F)F)c23)ccc(OCCN2CCN(C)CC2)c1Cl` [Compound 103], in that order: 8.00 to 9.00 and < 8.00.
With `Cc1c(-c2c(-c3ccc(F)o3)sc3ncnc(O[C@H](Cc4ccccc4OCc4ccnn4CC(F)(F)F)C(=O)O)c23)ccc(OCCN2CCN(C)CC2)c1Cl` [II, reference compound], the pIC50 in assay [1] is < 8.00.

Broadly, the pIC50 is the negative decadic logarithm of the IC50, by convention in mol/L. Low values mean a large IC50, high ones a small IC50.
